Assays:
Assay type in all cases: in vivo
[1] = system: giant foxtail (Setaria faberi); experiment: Test G Post-Emergence Protocol; conditions: Setaria faberi, post-emergence, 312 h, read-out: Foxtail, Giant damage rating; for pest or weed control at 15.625 g/ha: 15.625 g ai/ha, evaluated after 13 days (100=total damage to plant; 0=no damage to plant); for pest or weed control at 62.5 g/ha: 62.5 g ai/ha; for pest or weed control at 62.5 g/ha / pest or weed control at 250 g/ha: evaluated after 13 days, 100=total damage to plant, 0=no damage to plant; for pest or weed control at 250 g/ha: 250 g ai/ha
Outline: (§1)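 Seedlings grown 8 days in soil in a glasshouse (24/16 °C day/night, 14 h light, 65% humidity) were sprayed post-emergence with compound in acetone/water 50:50 plus 0.5% Tween 20 at 15.625, 62.5 or 250 g/ha. Damage was scored after 13 days on a 0–100 scale (100 = total damage).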

[2] = system: redroot pigweed (Amaranthus retroflexus); experiment: Test G Post-Emergence Protocol; conditions: Amaranthus retroflexus, post-emergence, 312 h, read-out: Pigweed, Redroot damage rating; for pest or weed control at 15.625 g/ha: 15.625 g ai/ha, evaluated after 13 days (100=total damage to plant; 0=no damage to plant); for pest or weed control at 62.5 g/ha: 62.5 g ai/ha; for pest or weed control at 62.5 g/ha / pest or weed control at 250 g/ha: evaluated after 13 days, 100=total damage to plant, 0=no damage to plant; for pest or weed control at 250 g/ha: 250 g ai/ha
Outline: as §1

[3] = system: corn (Zea mays); experiment: Test G Post-Emergence Protocol; conditions: Zea mays, post-emergence, 312 h, read-out: Corn damage rating; for plant injury at 15.625 g/ha: 15.625 g ai/ha, evaluated after 13 days (100=total damage to plant; 0=no damage to plant); for plant injury at 62.5 g/ha: 62.5 g ai/ha; for plant injury at 62.5 g/ha / plant injury at 250 g/ha: evaluated after 13 days, 100=total damage to plant, 0=no damage to plant; for plant injury at 250 g/ha: 250 g ai/ha
Outline: as §1

[4] = system: ivy-leaved morning glory (Ipomoea hederacea); experiment: Test G Post-Emergence Protocol; conditions: Ipomoea, post-emergence, 312 h, read-out: Morningglory, Ivy-leaved damage rating; for pest or weed control at 15.625 g/ha: 15.625 g ai/ha, evaluated after 13 days (100=total damage to plant; 0=no damage to plant); for pest or weed control at 62.5 g/ha: 62.5 g ai/ha; for pest or weed control at 62.5 g/ha / pest or weed control at 250 g/ha: evaluated after 13 days, 100=total damage to plant, 0=no damage to plant; for pest or weed control at 250 g/ha: 250 g ai/ha
Outline: as §1

[5] = system: velvetleaf (Abutilon theophrasti); experiment: Test G Post-Emergence Protocol; conditions: Abutilon theophrasti, post-emergence, 312 h, read-out: Velvetleaf damage rating; for pest or weed control at 15.625 g/ha: 15.625 g ai/ha, evaluated after 13 days (100=total damage to plant; 0=no damage to plant); for pest or weed control at 62.5 g/ha: 62.5 g ai/ha; for pest or weed control at 62.5 g/ha / pest or weed control at 250 g/ha: evaluated after 13 days, 100=total damage to plant, 0=no damage to plant; for pest or weed control at 250 g/ha: 250 g ai/ha
Outline: as §1

[6] = system: barnyardgrass (Echinochloa crus-galli); experiment: Test G Post-Emergence Protocol; conditions: Echinochloa crus-galli, post-emergence, 312 h, read-out: Barnyardgrass damage rating; for pest or weed control at 15.625 g/ha: 15.625 g ai/ha, evaluated after 13 days (100=total damage to plant; 0=no damage to plant); for pest or weed control at 62.5 g/ha: 62.5 g ai/ha; for pest or weed control at 62.5 g/ha / pest or weed control at 250 g/ha: evaluated after 13 days, 100=total damage to plant, 0=no damage to plant; for pest or weed control at 250 g/ha: 250 g ai/ha
Outline: as §1

[7] = system: giant foxtail (Setaria faberi); experiment: Test G Pre-Emergence Protocol; conditions: Setaria faberi, pre-emergence, 312 h, evaluated after 13 days; for pest or weed control at 15.625 g/ha: 15.625 g ai/ha; for pest or weed control at 15.625 g/ha / pest or weed control at 250 g/ha: read-out: Foxtail, Giant damage rating (100=total damage to plant; 0=no damage to plant); for pest or weed control at 62.5 g/ha: 62.5 g ai/ha, 100=total damage to plant, 0=no damage to plant, read-out: Foxtail, Giant damage rating; for pest or weed control at 250 g/ha: 250 g ai/ha
Outline: (§2)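 Seeds were sown in standard soil and kept one day in a glasshouse (24/16° C day/night, 14 h light, 65% humidity), then sprayed with compound in acetone/water (50:50) containing 0.5% Tween 20 at 15.625, 62.5 or 250 g/ha. Damage was scored after 13 days (0 = none, 100 = total).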

[8] = system: redroot pigweed (Amaranthus retroflexus); experiment: Test G Pre-Emergence Protocol; conditions: Amaranthus retroflexus, pre-emergence, 312 h, evaluated after 13 days; for pest or weed control at 15.625 g/ha: 15.625 g ai/ha; for pest or weed control at 15.625 g/ha / pest or weed control at 250 g/ha: read-out: Pigweed, Redroot damage rating (100=total damage to plant; 0=no damage to plant); for pest or weed control at 62.5 g/ha: 62.5 g ai/ha, 100=total damage to plant, 0=no damage to plant, read-out: Pigweed, Redroot damage rating; for pest or weed control at 250 g/ha: 250 g ai/ha
Outline: as §2

[9] = system: corn (Zea mays); experiment: Test G Pre-Emergence Protocol; conditions: Zea mays, pre-emergence, 312 h, evaluated after 13 days; for plant injury at 15.625 g/ha: 15.625 g ai/ha; for plant injury at 15.625 g/ha / plant injury at 250 g/ha: read-out: Corn damage rating (100=total damage to plant; 0=no damage to plant); for plant injury at 62.5 g/ha: 62.5 g ai/ha, 100=total damage to plant, 0=no damage to plant, read-out: Corn damage rating; for plant injury at 250 g/ha: 250 g ai/ha
Outline: as §2

[10] = system: ivy-leaved morning glory (Ipomoea hederacea); experiment: Test G Pre-Emergence Protocol; conditions: Ipomoea, pre-emergence, 312 h, evaluated after 13 days; for pest or weed control at 15.625 g/ha: 15.625 g ai/ha; for pest or weed control at 15.625 g/ha / pest or weed control at 250 g/ha: read-out: Morningglory, Ivy-leaved damage rating (100=total damage to plant; 0=no damage to plant); for pest or weed control at 62.5 g/ha: 62.5 g ai/ha, 100=total damage to plant, 0=no damage to plant, read-out: Morningglory, Ivy-leaved damage rating; for pest or weed control at 250 g/ha: 250 g ai/ha
Outline: as §2

[11] = system: velvetleaf (Abutilon theophrasti); experiment: Test G Pre-Emergence Protocol; conditions: Abutilon theophrasti, pre-emergence, 312 h, evaluated after 13 days; for pest or weed control at 15.625 g/ha: 15.625 g ai/ha; for pest or weed control at 15.625 g/ha / pest or weed control at 250 g/ha: read-out: Velvetleaf damage rating (100=total damage to plant; 0=no damage to plant); for pest or weed control at 62.5 g/ha: 62.5 g ai/ha, 100=total damage to plant, 0=no damage to plant, read-out: Velvetleaf damage rating; for pest or weed control at 250 g/ha: 250 g ai/ha
Outline: as §2

[12] = system: barnyardgrass (Echinochloa crus-galli); experiment: Test G Pre-Emergence Protocol; conditions: Echinochloa crus-galli, pre-emergence, 312 h, evaluated after 13 days; for pest or weed control at 15.625 g/ha: 15.625 g ai/ha; for pest or weed control at 15.625 g/ha / pest or weed control at 250 g/ha: read-out: Barnyardgrass damage rating (100=total damage to plant; 0=no damage to plant); for pest or weed control at 62.5 g/ha: 62.5 g ai/ha, 100=total damage to plant, 0=no damage to plant, read-out: Barnyardgrass damage rating; for pest or weed control at 250 g/ha: 250 g ai/ha
Outline: as §2

SMILES	pest or weed control at 15.625 g/ha [1] [%]	pest or weed control at 62.5 g/ha [1] [%]	pest or weed control at 250 g/ha [1] [%]	pest or weed control at 15.625 g/ha [2] [%]	pest or weed control at 62.5 g/ha [2] [%]	pest or weed control at 250 g/ha [2] [%]	plant injury at 15.625 g/ha [3] [%]	plant injury at 62.5 g/ha [3] [%]	plant injury at 250 g/ha [3] [%]	pest or weed control at 15.625 g/ha [4] [%]	pest or weed control at 62.5 g/ha [4] [%]	pest or weed control at 250 g/ha [4] [%]	pest or weed control at 15.625 g/ha [5] [%]	pest or weed control at 62.5 g/ha [5] [%]	pest or weed control at 250 g/ha [5] [%]	pest or weed control at 15.625 g/ha [6] [%]	pest or weed control at 62.5 g/ha [6] [%]	pest or weed control at 250 g/ha [6] [%]	pest or weed control at 15.625 g/ha [7] [%]	pest or weed control at 62.5 g/ha [7] [%]	further results
CN1C[C@H](c2ccc(C(F)(F)F)cc2)[C@@H](C(=O)Nc2cnccc2F)C1=O (racemic) [Compound 1744]	0	20	60	0	10	30	0	0	10	0	0	40	0	0	10	0	10	70	0	10	pest or weed control at 250 g/ha [7]: 50%; pest or weed control at 15.625 g/ha [8]: 0%; pest or weed control at 62.5 g/ha [8]: 10%; pest or weed control at 250 g/ha [8]: 10%; plant injury at 15.625 g/ha [9]: 0%; plant injury at 62.5 g/ha [9]: 0%; plant injury at 250 g/ha [9]: 0%; pest or weed control at 15.625 g/ha [10]: 0%; pest or weed control at 62.5 g/ha [10]: 0%; pest or weed control at 15.625 g/ha [11]: 0%; pest or weed control at 62.5 g/ha [11]: 0%; pest or weed control at 250 g/ha [11]: 0%; pest or weed control at 15.625 g/ha [12]: 0%; pest or weed control at 62.5 g/ha [12]: 0%; pest or weed control at 250 g/ha [12]: 0%
CCOc1cc([C@@H]2CN(C)C(=O)[C@H]2C(=O)Nc2cccc(F)c2F)cc(C(F)(F)F)n1 (racemic) [Compound 1753]	60	60	70	0	20	30	60	60	80	20	50	60	10	20	30	40	70	70	70	80	pest or weed control at 250 g/ha [7]: 90%; pest or weed control at 15.625 g/ha [8]: 0%; pest or weed control at 62.5 g/ha [8]: 0%; pest or weed control at 250 g/ha [8]: 60%; plant injury at 15.625 g/ha [9]: 0%; plant injury at 62.5 g/ha [9]: 0%; plant injury at 250 g/ha [9]: 60%; pest or weed control at 15.625 g/ha [10]: 0%; pest or weed control at 62.5 g/ha [10]: 0%; pest or weed control at 250 g/ha [10]: 80%; pest or weed control at 15.625 g/ha [11]: 0%; pest or weed control at 62.5 g/ha [11]: 0%; pest or weed control at 250 g/ha [11]: 0%; pest or weed control at 15.625 g/ha [12]: 30%; pest or weed control at 62.5 g/ha [12]: 70%; pest or weed control at 250 g/ha [12]: 80%
CON1C[C@@H](c2cccc(C(F)(F)F)c2)[C@H](C(=O)Nc2cccc(F)c2F)C1=O (racemic) [Compound 1763]	60	60	70	0	0	20	20	20	70	30	40	50	0	10	20	40	60	70	80	90	pest or weed control at 250 g/ha [7]: 90%; pest or weed control at 15.625 g/ha [8]: 0%; pest or weed control at 62.5 g/ha [8]: 0%; pest or weed control at 250 g/ha [8]: 0%; plant injury at 15.625 g/ha [9]: 0%; plant injury at 62.5 g/ha [9]: 50%; plant injury at 250 g/ha [9]: 80%; pest or weed control at 15.625 g/ha [10]: 0%; pest or weed control at 62.5 g/ha [10]: 0%; pest or weed control at 250 g/ha [10]: 20%; pest or weed control at 15.625 g/ha [11]: 0%; pest or weed control at 62.5 g/ha [11]: 0%; pest or weed control at 250 g/ha [11]: 0%; pest or weed control at 15.625 g/ha [12]: 20%; pest or weed control at 62.5 g/ha [12]: 60%; pest or weed control at 250 g/ha [12]: 80%

— patent publication US12077503B2, “Substituted cyclic amides and their use as herbicides” (FMC CORPORATION, priority 2015, dated 2024)
